Measurements published in ChEMBL document CHEMBL1153531, “1- or 3-(3-Amino-2-hydroxy-1-phenyl propyl)-1,3-dihydro-2H-benzimidazol-2-ones: potent, selective, and orally efficacious norepinephrine reuptake inhibitors” (J Med Chem, 2009).
Activity calls are given as the source filed them. No cut-off for these calls is given here.

How the values were obtained:
[1] = biological target: T1, Sodium-dependent noradrenaline transporter (Homo sapiens, UniProt P23975)
[2] = biological target: Sodium-dependent serotonin transporter (Homo sapiens) (UniProt P31645); experiment: Inhibition of [3H]hydroxytryptamine creatinine sulfate uptake at human SERT expressed in human JAR cells at 1 uM; format: cell-based
Sequence of Sodium-dependent serotonin transporter (Homo sapiens) (P31645 whole entry, looked up): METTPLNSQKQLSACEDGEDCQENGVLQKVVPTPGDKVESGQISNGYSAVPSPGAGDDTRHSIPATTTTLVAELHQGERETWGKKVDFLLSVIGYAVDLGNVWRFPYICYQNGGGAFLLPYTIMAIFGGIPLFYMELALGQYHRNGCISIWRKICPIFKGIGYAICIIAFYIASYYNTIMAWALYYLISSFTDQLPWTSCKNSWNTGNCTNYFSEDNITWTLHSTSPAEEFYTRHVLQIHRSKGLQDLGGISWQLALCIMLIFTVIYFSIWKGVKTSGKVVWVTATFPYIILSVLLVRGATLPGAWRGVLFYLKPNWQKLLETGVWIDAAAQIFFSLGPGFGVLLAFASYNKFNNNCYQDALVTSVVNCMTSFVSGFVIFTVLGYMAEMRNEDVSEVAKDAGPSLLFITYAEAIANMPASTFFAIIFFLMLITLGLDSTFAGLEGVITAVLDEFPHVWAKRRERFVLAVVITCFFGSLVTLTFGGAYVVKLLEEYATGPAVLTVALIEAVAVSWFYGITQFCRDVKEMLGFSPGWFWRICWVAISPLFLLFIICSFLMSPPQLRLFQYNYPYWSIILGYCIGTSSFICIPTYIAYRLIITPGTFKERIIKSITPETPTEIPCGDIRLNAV

[3] = biological target: Sodium-dependent dopamine transporter (Homo sapiens) (UniProt Q01959); experiment: Inhibition of [3H]WIN-35428 binding to human recombinant DAT expressed in CHO cells at 10 uM by scintillation counting; format: cell-based
Sequence of Sodium-dependent dopamine transporter (Homo sapiens) (Q01959 whole entry): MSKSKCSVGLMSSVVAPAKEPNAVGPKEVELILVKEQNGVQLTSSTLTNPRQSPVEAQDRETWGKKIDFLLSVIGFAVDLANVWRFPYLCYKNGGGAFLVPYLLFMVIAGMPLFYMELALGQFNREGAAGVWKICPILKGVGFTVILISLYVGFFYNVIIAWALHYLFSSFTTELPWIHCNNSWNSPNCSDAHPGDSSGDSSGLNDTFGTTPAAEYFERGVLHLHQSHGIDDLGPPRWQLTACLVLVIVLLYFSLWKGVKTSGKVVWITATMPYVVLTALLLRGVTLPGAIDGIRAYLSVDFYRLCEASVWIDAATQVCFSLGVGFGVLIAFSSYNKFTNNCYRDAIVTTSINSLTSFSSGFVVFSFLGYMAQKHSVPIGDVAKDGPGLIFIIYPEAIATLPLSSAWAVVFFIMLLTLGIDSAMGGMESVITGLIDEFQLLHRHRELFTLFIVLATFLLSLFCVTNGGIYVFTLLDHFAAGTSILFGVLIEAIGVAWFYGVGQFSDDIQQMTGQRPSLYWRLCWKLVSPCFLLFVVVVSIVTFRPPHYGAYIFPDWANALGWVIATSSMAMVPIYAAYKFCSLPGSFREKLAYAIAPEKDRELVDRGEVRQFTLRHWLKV

[4] = system: JAR; experiment: Selectivity for human NET expressed in MDCK-Net6 cells over human SERT expressed in human JAR cells; format: cell-based
[5] = system: Rattus norvegicus; experiment: Effect on temperature homeostasis in telemetric ovariectomy-induced thermoregulatory dysfunction Sprague-Dawley rat model assessed as maximum reduction in tail skin temperature at 3 mg/kg, po relative to baseline; format: functional
[6] = organism: Homo sapiens; experiment: Selectivity […] human SERT to IC50 for human NET
[7] = system: Rattus norvegicus; experiment: Analgesic activity in Sprague-Dawley rat acute analgesia model assessed as increase in nocifensive latency at 10 mg/kg, po after 3 hrs by hot plate assay; format: functional, organism-based; set-up: dose 10 mg/kg
[8] = system: Rattus norvegicus; experiment: Analgesic activity in Sprague-Dawley rat acute analgesia model assessed as increase nocifensive latency at 10 mg/kg, po after 1 hr by hot plate assay; format: functional, organism-based; set-up: dose 10 mg/kg
[9] = biological target: T1, Sodium-dependent noradrenaline transporter; experiment: biochemical
[10] = system: Rattus norvegicus; experiment: Effect on temperature homeostasis in telemetric ovariectomy-induced thermoregulatory dysfunction Sprague-Dawley rat model assessed as duration of tail skin temperature reduction at 3 mg/kg, po; format: functional
[11] = system: Rattus norvegicus; experiment: Antihyperalgesic in po dosed Sprague-Dawley rat spinal nerve ligation model of neuropathic pain assessed as complete hind paw withdrawal after 3 to 4 weeks post surgery by paw pressure technique analysis; format: functional, organism-based
[12] = system: Rattus norvegicus; experiment: Analgesic activity in Sprague-Dawley rat acute analgesia model assessed as increase in nocifensive latency at 10 mg/kg, po after 5 hrs by hot plate assay; format: functional, organism-based; set-up: dose 10 mg/kg
[13] = biological target: Sodium-dependent serotonin transporter (Homo sapiens) (UniProt P31645); conditions: JAR
[14] = system: CHO; experiment: Selectivity for human NET expressed in MDCK-Net6 cells over human DAT expressed in CHO cells; format: cell-based
[15] = system: Rattus norvegicus; experiment: Effect on temperature homeostasis in telemetric ovariectomy-induced thermoregulatory dysfunction Sprague-Dawley rat model assessed as mean reduction in tail skin temperature at 3 mg/kg, po relative to baseline; format: functional
[16] = biological target: Sodium-dependent dopamine transporter (Homo sapiens) (UniProt Q01959); experiment: Inhibition of [3H]WIN-35428 binding to human recombinant DAT expressed in CHO cells at 1 uM by scintillation counting; format: cell-based
[17] = AUC (0 to infinity) in Sprague-Dawley rat at 10 mg/kg, po; format: ADME, organism-based; set-up: time infinity, dose 10 mg/kg, route oral; conditions: plasma
[18] = Oral bioavailability in Sprague-Dawley rat at 10 mg/kg; format: ADME, organism-based; conditions: in vivo
[19] = Cmax in Sprague-Dawley rat 10 mg/kg, po within 2 hrs; format: ADME, organism-based; set-up: dose 10 mg/kg, route oral; conditions: in vivo
[20] = Tmax in Sprague-Dawley rat at 10 mg/kg, po; format: ADME, organism-based; set-up: dose 10 mg/kg, route oral; conditions: in vivo
[21] = biological target: Sodium-dependent dopamine transporter (Homo sapiens) (UniProt Q01959); experiment: Inhibition of [3H]WIN-35428 binding to human recombinant DAT expressed in CHO cells by scintillation counting; format: cell-based
[22] = Plasma clearance in Sprague-Dawley rat at 5 mg/kg, iv; format: ADME, organism-based; set-up: dose 5 mg/kg, route intravenous
[23] = Terminal half life in Sprague-Dawley rat at 5 mg/kg, iv; format: ADME, organism-based; set-up: dose 5 mg/kg, route intravenous; conditions: in vivo, read-out: beta t1/2 (converted)
[24] = Terminal half life in Sprague-Dawley rat at 10 mg/kg, po; format: ADME, organism-based; set-up: dose 10 mg/kg, route oral; conditions: in vivo, read-out: beta t1/2 (converted)
[25] = AUC (0 to infinity) in Sprague-Dawley rat at 5 mg/kg, iv; format: ADME, organism-based; set-up: time infinity, dose 5 mg/kg, route intravenous; conditions: plasma

T1 sequence (P23975 whole entry): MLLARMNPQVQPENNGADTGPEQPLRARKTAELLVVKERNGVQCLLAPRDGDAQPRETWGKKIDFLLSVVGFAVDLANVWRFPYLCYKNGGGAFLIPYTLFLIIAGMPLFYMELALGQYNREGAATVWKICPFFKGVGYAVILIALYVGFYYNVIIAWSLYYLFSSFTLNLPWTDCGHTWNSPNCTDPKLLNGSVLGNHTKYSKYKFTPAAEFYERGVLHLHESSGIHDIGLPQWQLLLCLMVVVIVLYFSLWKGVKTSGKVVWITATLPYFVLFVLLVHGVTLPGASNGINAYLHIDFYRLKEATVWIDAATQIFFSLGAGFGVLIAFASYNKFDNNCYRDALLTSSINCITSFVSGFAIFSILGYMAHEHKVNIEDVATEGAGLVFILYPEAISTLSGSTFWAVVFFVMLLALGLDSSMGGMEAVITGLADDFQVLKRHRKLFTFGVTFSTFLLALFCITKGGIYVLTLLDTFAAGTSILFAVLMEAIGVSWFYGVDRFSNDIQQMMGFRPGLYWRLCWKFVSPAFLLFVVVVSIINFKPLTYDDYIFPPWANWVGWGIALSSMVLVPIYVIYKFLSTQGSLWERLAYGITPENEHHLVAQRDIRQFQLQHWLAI

## CNC[C@@H](O)[C@H](c1ccccc1)n1c(=O)n(C)c2ccccc21
[1]
  IC50: 257 nM
[2]
  inhibition: 15%
[3]
  inhibition: 14%

## CCn1c(=O)n([C@@H](c2ccccc2)[C@H](O)CNC)c2cc(F)ccc21
[1]
  IC50: 36.7 nM
[2]
  inhibition: 32%
[3]
  inhibition: 30%

## CCNC[C@@H](O)[C@H](c1ccccc1)n1c(=O)n(C(C)C)c2ccc(F)cc21
[1]
  IC50: > 1000 nM

## CCn1c(=O)n([C@@H](c2cccc(F)c2)[C@H](O)CNC)c2ccccc21
[4]
  Selectivity ratio: > 500
[5]
  Activity: 2.62 °C
[6]
  Selectivity ratio: > 900
[7]
  Activity: Active
[1]
  IC50: 7.4 nM
[2]
  inhibition: 15%
[8]
  Activity: Active
[9]
  IC50: 6.4 nM
[10]
  Time: 5 h
[11]
  Activity: Dose-dependent effect
[12]
  Activity: Active
[13]
  IC5: > 10 µM
[14]
  Selectivity ratio: > 500
[3]
  inhibition: -2%
[15]
  Activity: 2.03 °C

## CNC[C@@H](O)[C@H](c1ccccc1)n1c(=O)n(C(C)C)c2ccccc21
[1]
  IC50: 13.4 nM
[2]
  inhibition: 19%
[9]
  IC50: 10.8 nM
[3]
  inhibition: 19%

## CNC[C@@H](O)[C@H](c1ccccc1)n1c(=O)n(C(C)(C)C)c2ccccc21
[1]
  IC50: 56 nM
[16]
  inhibition: 3%
[2]
  inhibition: 1%

## CCn1c(=O)n([C@@H](c2cccc(F)c2)[C@H](O)CNC)c2c(F)cccc21
[4]
  Selectivity ratio: > 500
[6]
  Selectivity ratio: > 900
[1]
  IC50: 10.4 nM
[2]
  inhibition: 8%
[9]
  IC50: 4.1 nM
[13]
  IC5: > 10 µM
[14]
  Selectivity ratio: > 500
[3]
  inhibition: 11%

## CNC[C@@H](O)[C@H](c1ccccc1)n1c(=O)n(C2CCC2)c2ccccc21
[1]
  IC50: 42.5 nM
[2]
  inhibition: 5%
[9]
  IC50: 90 nM
[3]
  inhibition: 6%

## CCCn1c(=O)n([C@@H](c2ccccc2)[C@H](O)CNC)c2ccccc21
[1]
  IC50: 18.6 nM
[2]
  inhibition: 15%
[3]
  inhibition: 6%

## CNC[C@@H](O)[C@H](c1cccc(F)c1)n1c(=O)n(C(C)C)c2cccc(F)c21
[17]
  AUC(0-inf): 7080 ng·h/mL
[18]
  bioavailability: 97%
[4]
  Selectivity ratio: > 500
[5]
  Activity: 3.73 °C
[6]
  Selectivity ratio: > 900
[1]
  IC50: 6.9 nM
[19]
  Cmax: 1120 ng/mL
[20]
  Tmax: 0.5 h
[2]
  inhibition: 19%
[21]
  IC5: 6320 nM
[22]
  clearance: 24 mL/min/kg
[9]
  IC50: 4.1 nM
[10]
  Time: 6 h
[13]
  IC5: 6.32 µM
[14]
  Selectivity ratio: > 500
[23]
  half-life: 2.3 h
[24]
  half-life: 3.9 h
[3]
  inhibition: 27%
[15]
  Activity: 2.44 °C
[25]
  AUC(0-inf): 3650 ng·h/mL

## CNC[C@@H](O)[C@H](c1ccccc1)n1ccc2ccccc21
[21]
  IC5: 358 nM
[13]
  IC5: 0.358 µM

## CCCn1c(=O)n([C@@H](c2ccccc2)[C@H](O)CNC)c2cc(F)ccc21
[1]
  IC50: 39.4 nM
[2]
  inhibition: 44%
[13]
  IC5: 8.32 µM
[3]
  inhibition: 16%

## CNCC[C@@H](Oc1ccccc1C)c1ccccc1
[21]
  IC5: 48 nM

## CNC[C@@H](O)[C@H](c1cccc(F)c1)n1c(=O)n(-c2ccccc2)c2cccc(F)c21
[1]
  IC50: 91.9 nM
[16]
  inhibition: 11%

## CNC[C@@H](O)[C@H](c1ccccc1)n1c(=O)n(C2CCCC2)c2ccccc21
[1]
  IC50: 66.7 nM
[2]
  inhibition: 46%
[13]
  IC5: 2.37 µM
[3]
  inhibition: 20%

## CCOc1ccccc1O[C@@H](c1ccccc1)[C@@H]1CNCCO1
[21]
  IC5: > 10000 nM

## CNC[C@@H](O)[C@H](c1ccccc1)n1c(=O)n(C(C)C)c2cccc(F)c21
[4]
  Selectivity ratio: > 500
[5]
  Activity: 2.09 °C
[6]
  Selectivity ratio: > 900
[1]
  IC50: 7.8 nM
[2]
  inhibition: 6%
[10]
  Time: 1 h
[13]
  IC5: > 10 µM
[14]
  Selectivity ratio: > 500
[3]
  inhibition: 12%
[15]
  Activity: 1.61 °C

## CCn1c(=O)n([C@@H](c2ccccc2)[C@H](O)CNC)c2ccccc21
[17]
  AUC(0-inf): 1840 ng·h/mL
[18]
  bioavailability: 56%
[5]
  Activity: 1.82 °C
[1]
  IC50: 17.5 nM
[19]
  Cmax: 306 ng/mL
[20]
  Tmax: 1.1 h
[2]
  inhibition: 4%
[22]
  clearance: 54 mL/min/kg
[9]
  IC50: 16.8 nM
[10]
  Time: 3.5 h
[23]
  half-life: 3.6 h
[24]
  half-life: 3.4 h
[15]
  Activity: 1.57 °C
[25]
  AUC(0-inf): 1640 ng·h/mL

## CCn1c(=O)n([C@@H](c2ccccc2)[C@H](O)CNC)c2c(F)cccc21
[1]
  IC50: 13.8 nM
[2]
  inhibition: -5%
[9]
  IC50: 11.4 nM
[3]
  inhibition: 29%
